Source: patent publication US11078202B2, “β-lactamase inhibitor and use thereof” (priority 2018, dated 2021)
Where a name gives a salt, the structure may show the parent alone.

What was measured:
Type in all cases: cell-based
[1] = test system: Acinetobacter baumannii XNWB 0007; assay: MIC assay of test compounds combined with ceftazidime (8 μg/mL); conditions: ceftazidime 8 μg/mL fixed
Experimental: (§1) The bacterial strains used for the minimum inhibitory concentration (MIC) test were frozen in a −80° C. ULT freezer and thawed 2 days before use. A small amount of frozen bacterial strains were scraped using a sterile inoculating loop, streaked onto a TSA solid culture dish for inoculation, and then cultured for 20-24 h at 35±2° C. in a normal atmospheric environment. 5-10 colonies with similar morphology were picked from the culture dish using a sterile inoculating loop and then re-streaked onto a suitable solid culture dish. Then the dish was placed into a normal incubator for culture for 20-24 h at 35±2° C. 5-10 single bacterial colonies were picked from the solid culture dish, resuspended in 500 μL of 0.9% NaCl, and adjusted to an OD600 of 0.1-0.15 with a spectrophotometer. The bacteria were then diluted 300-fold with 1.1×CAMHB. […] Dilution of test compounds: […] 2 μL of each compound in the dilution master plate of the test compounds was transferred to the corresponding well of the assay plates. In the mean time, 2 μL of 100% DMSO was transferred to the compound-free wells (GC and SC wells). (1) 8 μL of imipenem in the additive plate of imipenem was transferred to the corresponding wells of the assay plates; (2) 8 μL of ceftazidime in the additive plate of ceftazidime was transferred to the corresponding wells of the assay plates; (3) 8 μL of ampicillin in the additive plate of ampicillin was transferred to the corresponding wells of the assay plates. 90 μL of corresponding bacterial inocula were added to wells (except for SC wells) of the assay plates. After addition, the 6 assay plates were covered by sterile covers. The mixtures in the assay plates were centrifuged by a centrifuge at 1000 rpm for 30 s, and mixed uniformly by oscillating with a microplate oscillator at 800 rpm for 1 min, and then cultured in a common incubator for 16-20 h at 35±2° C. The minimum inhibitory concentration of each compound was recorded by reference to guidelines from the Clinical and Laboratory Standards Institute. […] The effect of the test compounds in combination with imipenem, ceftazidime, and ampicillin was also tested. […] The bacterial inocula in the assay plates were resuscitated from TSA and diluted in CAMHB, while growth controls (GC wells) and sterile controls (SC wells) were set up in the assay plates. The minimum inhibitory concentration of each compound combination against different bacteria was observed and recorded after the assay plates were incubated in a common incubator at 35±2° C. for 16-20 h, and the results are shown in Tables 1-3.

[2] = test system: Klebsiella pneumoniae XNWB 0001; assay: as above; conditions: ceftazidime 8 μg/mL fixed
Experimental: as §1

[3] = test system: Klebsiella pneumoniae XNWB 0002; assay: as above; conditions: ceftazidime 8 μg/mL fixed
Experimental: as §1

[4] = test system: Klebsiella pneumoniae XNWB 0003; assay: as above; conditions: ceftazidime 8 μg/mL fixed
Experimental: as §1

[5] = test system: Klebsiella pneumoniae XNWB 0004; assay: as above; conditions: ceftazidime 8 μg/mL fixed
Experimental: as §1

[6] = test system: Klebsiella pneumoniae XNWB 0005; assay: as above; conditions: ceftazidime 8 μg/mL fixed
Experimental: as §1

[7] = test system: Klebsiella pneumoniae XNWB 0006; assay: as above; conditions: ceftazidime 8 μg/mL fixed
Experimental: as §1

[8] = test system: Pseudomonas aeruginosa XNWB 0008; assay: as above; conditions: ceftazidime 8 μg/mL fixed
Experimental: as §1

[9] = test system: Acinetobacter baumannii XNWB 0007; assay: MIC assay of test compounds combined with imipenem (4 μg/mL); conditions: imipenem 4 μg/mL fixed
Experimental: as §1

[10] = test system: Klebsiella pneumoniae XNWB 0001; assay: as above; conditions: imipenem 4 μg/mL fixed
Experimental: as §1

[11] = test system: Klebsiella pneumoniae XNWB 0002; assay: as above; conditions: imipenem 4 μg/mL fixed
Experimental: as §1

[12] = test system: Klebsiella pneumoniae XNWB 0003; assay: as above; conditions: imipenem 4 μg/mL fixed
Experimental: as §1

[13] = test system: Klebsiella pneumoniae XNWB 0004; assay: as above; conditions: imipenem 4 μg/mL fixed
Experimental: as §1

[14] = test system: Klebsiella pneumoniae XNWB 0005; assay: as above; conditions: imipenem 4 μg/mL fixed
Experimental: as §1

[15] = test system: Klebsiella pneumoniae XNWB 0006; assay: as above; conditions: imipenem 4 μg/mL fixed
Experimental: as §1

[16] = test system: Pseudomonas aeruginosa XNWB 0008; assay: as above; conditions: imipenem 4 μg/mL fixed
Experimental: as §1

Row | SMILES | The minimum concentration of test compounds combined with ceftazidime (8 μg/mL) for bacteriostasis [1] | The minimum concentration of test compounds combined with ceftazidime (8 μg/mL) for bacteriostasis [2] | The minimum concentration of test compounds combined with ceftazidime (8 μg/mL) for bacteriostasis [3] | The minimum concentration of test compounds combined with ceftazidime (8 μg/mL) for bacteriostasis [4] | The minimum concentration of test compounds combined with ceftazidime (8 μg/mL) for bacteriostasis [5] | The minimum concentration of test compounds combined with ceftazidime (8 μg/mL) for bacteriostasis [6] | The minimum concentration of test compounds combined with ceftazidime (8 μg/mL) for bacteriostasis [7] | The minimum concentration of test compounds combined with ceftazidime (8 μg/mL) for bacteriostasis [8] | The minimum concentration of test compounds combined with imipenem (4 μg/mL) for bacteriostasis [9] | The minimum concentration of test compounds combined with imipenem (4 μg/mL) for bacteriostasis [10] | The minimum concentration of test compounds combined with imipenem (4 μg/mL) for bacteriostasis [11] | The minimum concentration of test compounds combined with imipenem (4 μg/mL) for bacteriostasis [12] | The minimum concentration of test compounds combined with imipenem (4 μg/mL) for bacteriostasis [13] | The minimum concentration of test compounds combined with imipenem (4 μg/mL) for bacteriostasis [14] | The minimum concentration of test compounds combined with imipenem (4 μg/mL) for bacteriostasis [15] | The minimum concentration of test compounds combined with imipenem (4 μg/mL) for bacteriostasis [16]
1 | N[C@H]1C[C@H](c2cc([C@@H]3CC4(CC4)[C@@H]4CN3C(=O)N4OS(=O)(=O)O)no2)C1 [Example 25, (1R,4S)-4-(5-((1S,3S)-3-aminocyclobutyl)isoxazol-3-yl)-6-oxo-5,7-diazaspiro[bicycle [3.2.1]octane-2,1′-cyclopropan]-7-yl sulfate] | C (C: 16-128 μg/mL) | A (A: <8 μg/mL) | A (A: <8 μg/mL) | A (A: <8 μg/mL) | B (B: 8-16 μg/mL) | A (A: <8 μg/mL) | A (A: <8 μg/mL) | B (B: 8-16 μg/mL) | C (C: 16-128 μg/mL) | A (A: <8 μg/mL) | A (A: <8 μg/mL) | A (A: <8 μg/mL) | A (A: <8 μg/mL) | A (A: <8 μg/mL) | A (A: <8 μg/mL) | A (A: <8 μg/mL)
2 | O=C1N2C[C@H](N1OS(=O)(=O)O)C1(CC1)C[C@H]2c1cc(CC2CNC2)on1 [Example 49, (1R,4S)-4-(5-(azetidin-3-ylmethyl)isoxazol-3-yl)-6-oxo-5,7-diazaspiro[bicycle[3.2.1]octane-2,1′-cyclopropan]-7-yl sulfate] | C (C: 16-128 μg/mL) | A (A: <8 μg/mL) | A (A: <8 μg/mL) | A (A: <8 μg/mL) | B (B: 8-16 μg/mL) | A (A: <8 μg/mL) | A (A: <8 μg/mL) | B (B: 8-16 μg/mL) | C (C: 16-128 μg/mL) | A (A: <8 μg/mL) | A (A: <8 μg/mL) | A (A: <8 μg/mL) | A (A: <8 μg/mL) | A (A: <8 μg/mL) | A (A: <8 μg/mL) | A (A: <8 μg/mL)
3 | N=C(N)NCc1cc([C@@H]2CC3(CC3)[C@@H]3CN2C(=O)N3OS(=O)(=O)O)no1 [Example 34, (1R,4S)-4-(5-(guanidinomethyl)isoxazol-3-yl)-6-oxo-5,7-diazaspiro[bicyclo[3.2.1]octane-2,1′-cyclopropan]-7-yl sulfate] | C (C: 16-128 μg/mL) | A (A: <8 μg/mL) | A (A: <8 μg/mL) | A (A: <8 μg/mL) | B (B: 8-16 μg/mL) | B (B: 8-16 μg/mL) | A (A: <8 μg/mL) | C (C: 16-128 μg/mL) | B (B: 8-16 μg/mL) | A (A: <8 μg/mL) | A (A: <8 μg/mL) | A (A: <8 μg/mL) | A (A: <8 μg/mL) | A (A: <8 μg/mL) | A (A: <8 μg/mL) | B (B: 8-16 μg/mL)
4 | N[C@H]1C[C@H](Cc2nnc([C@@H]3CC4(CC4)[C@@H]4CN3C(=O)N4OS(=O)(=O)O)o2)C1 [Example 20, (1R,4S)-4-(5-(((1S,3S)-3-aminocyclobutyl)methyl)-1,3,4-oxadiazol-2-yl)-6-oxo-5,7-diazaspiro[bicyclo[3.2.1]octane-2,1′-cyclopropan]-7-yl sulfate] | C (C: 16-128 μg/mL) | A (A: <8 μg/mL) | A (A: <8 μg/mL) | A (A: <8 μg/mL) | A (A: <8 μg/mL) | A (A: <8 μg/mL) | A (A: <8 μg/mL) | B (B: 8-16 μg/mL) | B (B: 8-16 μg/mL) | A (A: <8 μg/mL) | A (A: <8 μg/mL) | A (A: <8 μg/mL) | A (A: <8 μg/mL) | A (A: <8 μg/mL) | A (A: <8 μg/mL) | A (A: <8 μg/mL)
5 | N[C@H]1C[C@H](c2nnc([C@@H]3CC4(CC4)[C@@H]4CN3C(=O)N4OS(=O)(=O)O)o2)C1 [Example 16] | C (C: 16-128 μg/mL) | A (A: <8 μg/mL) | A (A: <8 μg/mL) | A (A: <8 μg/mL) | B (B: 8-16 μg/mL) | A (A: <8 μg/mL) | A (A: <8 μg/mL) | B (B: 8-16 μg/mL) | B (B: 8-16 μg/mL) | A (A: <8 μg/mL) | A (A: <8 μg/mL) | A (A: <8 μg/mL) | A (A: <8 μg/mL) | A (A: <8 μg/mL) | A (A: <8 μg/mL) | A (A: <8 μg/mL)
